Measurements taken from patent publication US7994172B2, “[1H-pyrazolo[3, 4-D]pyrimidin-4-yl]-piperidine or -piperazine compounds as serine-theoronine kinase modulators (P70s6k, Atk1 and Atk2) for the treatment of immunological, inflammatory and proliferative diseases” (Exelixis, Inc., priority 2004, dated 2011).

Legend:
Format in all cases: biochemical
[1] = molecular target: T1, human p70S6 kinase (p70S6K, kinase domain residues 1-421, T412E mutation) (Homo sapiens, UniProt P23443, T412E); assay: p70S6 kinase assay, Luciferase-Coupled Chemiluminescent Kinase assay (LCCA); details: 5 μM ATP, 12 nM p70S6K; read-out: p70S6K inhibition IC50
T1 construct: human p70S6 kinase domainresidues 1-421, containing a T412E mutation; made in house
T1 sequence (P23443 1-421 T412E): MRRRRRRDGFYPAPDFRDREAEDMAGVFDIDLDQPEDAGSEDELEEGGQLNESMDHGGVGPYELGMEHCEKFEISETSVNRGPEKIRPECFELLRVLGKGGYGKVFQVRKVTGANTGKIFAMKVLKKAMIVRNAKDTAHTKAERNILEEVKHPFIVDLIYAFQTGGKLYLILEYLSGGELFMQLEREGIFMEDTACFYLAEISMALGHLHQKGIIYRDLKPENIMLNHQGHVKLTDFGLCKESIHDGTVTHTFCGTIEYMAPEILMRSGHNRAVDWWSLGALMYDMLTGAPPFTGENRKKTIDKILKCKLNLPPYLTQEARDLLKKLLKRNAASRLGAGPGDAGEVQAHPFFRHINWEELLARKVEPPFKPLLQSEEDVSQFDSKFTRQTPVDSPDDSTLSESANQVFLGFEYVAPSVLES
In short: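 Baculovirus-expressed kinase domain (12 nM) reacted 2 h at ambient temperature with 5 μM ATP and 5 μM RRRLSSLRA peptide. Buffer was Tris pH 7.5 with MgCl2, MnCl2, DTT and Triton X-100. Remaining ATP was read by luciferase-luciferin chemiluminescence. IC50 came from 10-point dose-response with a four-parameter Hill fit.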

[2] = molecular target: T2, human Akt1 kinase (kinase domain residues R144-A480, activated with PDK1) (Homo sapiens, UniProt P31749); assay: Akt1 kinase assay, Luciferase-Coupled Chemiluminescent Kinase assay (LCCA); details: 1 μM ATP, 1.3 nM Akt1; read-out: Akt-1 inhibition IC50
T2 construct: made in house
T2 sequence (P31749 144-480): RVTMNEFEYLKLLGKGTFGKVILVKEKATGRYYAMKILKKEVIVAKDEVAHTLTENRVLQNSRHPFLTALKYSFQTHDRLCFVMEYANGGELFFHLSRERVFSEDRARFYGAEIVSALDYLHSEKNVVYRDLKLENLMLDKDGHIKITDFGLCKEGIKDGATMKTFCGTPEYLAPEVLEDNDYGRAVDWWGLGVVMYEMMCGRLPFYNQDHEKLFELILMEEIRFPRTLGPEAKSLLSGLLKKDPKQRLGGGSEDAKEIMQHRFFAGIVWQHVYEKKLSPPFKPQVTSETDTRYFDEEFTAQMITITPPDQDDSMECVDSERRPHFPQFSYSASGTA
In short: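 Baculovirus-expressed PDK1-activated Akt1 kinase domain (R144-A480), 1.3 nM, with 5 μM crosstide and 1 μM ATP in Tris pH 7.5 with MgCl2/MnCl2, 3 h at ambient temperature. Remaining ATP read by luciferase-luciferin chemiluminescence; 10-point IC50 from four-parameter fit.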

[3] = molecular target: T3, human Akt2 kinase (kinase domain residues K146-R480) (Homo sapiens, UniProt P31751); assay: Akt2 kinase assay, Luciferase-Coupled Chemiluminescent Kinase assay (LCCA); details: 2 μM ATP, 10 nM Akt2; read-out: Akt-2 inhibition IC50
T3 construct: human Akt2 kinase domain residues K146-R480; made in house
T3 sequence (P31751 146-480): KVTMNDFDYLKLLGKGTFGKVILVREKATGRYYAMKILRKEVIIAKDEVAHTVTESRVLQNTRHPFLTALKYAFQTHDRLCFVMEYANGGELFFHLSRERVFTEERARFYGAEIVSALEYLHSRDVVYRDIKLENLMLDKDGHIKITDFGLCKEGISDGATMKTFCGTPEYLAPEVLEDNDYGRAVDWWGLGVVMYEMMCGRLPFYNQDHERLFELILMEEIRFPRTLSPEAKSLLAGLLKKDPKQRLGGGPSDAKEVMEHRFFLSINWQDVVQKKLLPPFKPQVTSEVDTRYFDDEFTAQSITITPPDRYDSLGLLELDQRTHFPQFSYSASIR
Procedure: Kinase activity and compound inhibition are investigated using one or more of the three assay formats described below. The ATP concentrations for each assay are selected to be close to the Michaelis-Menten constant (KM) for each individual kinase. Dose-response experiments are performed at 10 different inhibitor concentrations in a 384-well plate format. The data are fitted to four-parameter equation (2) below; where Y is the observed signal, X is the inhibitor concentration, Min is the background signal in the absence of enzyme (0% enzyme activity), Max is the signal in the absence of inhibitor (100% enzyme activity), IC50 is the inhibitor concentration at 50% enzyme inhibition and H represents the empirical Hill's slope to measure the cooperativity. Typically H is close to unity. Y=Min+(Max−Min)/(1+(X/IC50)^H) Equation (2) p70S6 Kinase Assay
Biochemical activity of Akt2 kinase was assessed using a Luciferase-Coupled Chemiluminescent Kinase assay (LCCA) format. Kinase activity was measured as the percent ATP remaining following the kinase reaction. Remaining ATP was detected by luciferase-luciferin-coupled chemiluminescence. Specifically, the reaction was initiated by mixing test compounds, 2 μM ATP, 5 μM crosstide peptide and 10 nM Akt2 (baculovirus expressed human Akt2 kinase domain residues K146-R480) in a 20 uL assay buffer (20 mM Tris-HCL pH 7.5, 10 mM MgCl2, 0.03% Triton X-100, 1 mM DTT, 3 mM MnCl2). The mixture is incubated at ambient temperature for 2 hours after which 20 μL luciferase-luciferin mix is added and the chemiluminescent signal read using a Wallac Victor2 reader. The luciferase-luciferin mix consists of 50 mM HEPES, pH 7.8, 8.5 μg/mL oxalic acid (pH 7.8), 5 (or 50) mM DTT, 0.4% Triton X-100, 0.25 mg/mL coenzyme A, 63 uM AMP, 28 μg/mL luciferin and 40,000 units/mL luciferase.

Compound | IC50 [1] [nM] | IC50 [2] [nM] | IC50 [3] [nM]
CN(C)C(=O)CN1CCN(c2ncnc3[nH]nc(Br)c23)CC1 [Entry 85, 2-[4-(3-bromo-1H-pyrazolo[3,4-d]pyrimidin-4-yl)piperazin-1-yl]-N,N-dimethylacetamide] | > 2000 | > 2000 | > 2000
COc1cc(OC)nc(CN2CCN(c3ncnc4[nH]nc(Br)c34)CC2)n1 [Entry 73, 4-(4-{[4,6-bis(methyloxy)pyrimidin-2-yl]methyl}piperazin-1-yl)-3-bromo-1H-pyrazolo[3,4-d]pyrimidine] | 500 to 2000 | > 2000 | > 2000
COc1ccc(CN2CCN(c3ncnc4[nH]nc(Br)c34)CC2)c(OC)c1OC [Entry 61, 3-bromo-4-(4-{[2,3,4-tris(methyloxy)phenyl]methyl}piperazin-1-yl)-1H-pyrazolo[3,4-d]pyrimidine] | 50 to 500 | > 2000 | > 2000
Brc1n[nH]c2ncnc(N3CCN(CCc4cccs4)CC3)c12 [Entry 68, 3-bromo-4-{4-[2-(2-thienyl)ethyl]piperazin-1-yl}-1H-pyrazolo[3,4-d]pyrimidine] | 500 to 2000 | > 2000 | > 2000
Brc1n[nH]c2ncnc(N3CCN(Cc4cccc5ccccc45)CC3)c12 [Entry 63, 3-bromo-4-[4-(naphthalen-1-ylmethyl)piperazin-1-yl]-1H-pyrazolo[3,4-d]pyrimidine] | 50 to 500 | > 2000 | > 2000
Brc1ccccc1CN1CCN(c2ncnc3[nH]nc(Br)c23)CC1 [Entry 45, 3-bromo-4-{4-[(2-bromophenyl)methyl]piperazin-1-yl}-1H-pyrazolo[3,4-d]pyrimidine] | < 50 | > 2000 | > 2000
Fc1ccc(CN2CCN(c3ncnc4[nH]nc(Br)c34)CC2)c(Cl)c1 [Entry 48, 3-bromo-4-{4-[(2-chloro-4-fluorophenyl)methyl]piperazin-1-yl}-1H-pyrazolo[3,4-d]pyrimidine] | < 50 | > 2000 | > 2000
Clc1ccccc1CN1CCN(c2ncnc3[nH]nc(Br)c23)CC1 [Entry 46, 3-bromo-4-{4-[(2-chlorophenyl)methyl]piperazin-1-yl}-1H-pyrazolo[3,4-d]pyrimidine] | < 50 | > 2000 | > 2000
CCC(C)N1CCN(c2ncnc3[nH]nc(Br)c23)CC1 (stereo not drawn) [Entry 72, 3-bromo-4-[4-(1-methylpropyl)piperazin-1-yl]-1H-pyrazolo[3,4-d]pyrimidine] | 500 to 2000 | > 2000 | > 2000

The next lines start with the values.

IC50 [1] [nM] | IC50 [2] [nM] | IC50 [3] [nM] | Compound
50 to 500 | > 2000 | > 2000 | Brc1n[nH]c2ncnc(N3CCN(Cc4cccnc4)CC3)c12 [Entry 60, 3-bromo-4-[4-(pyridin-3-ylmethyl)piperazin-1-yl]-1H-pyrazolo[3,4-d]pyrimidine]
50 to 500 | > 2000 | > 2000 | Cc1cccc(CN2CCN(c3ncnc4[nH]nc(Br)c34)CC2)c1 [Entry 54, 3-bromo-4-{4-[(3-methylphenyl)methyl]piperazin-1-yl}-1H-pyrazolo[3,4-d]pyrimidine]
< 50 | 50 to 500 | > 2000 | Clc1ccc(CN2CCN(c3ncnc4[nH]nc(Br)c34)CC2)cc1 [Entry 19, 3-bromo-4-{4-[(4-chlorophenyl)methyl]piperazin-1-yl}-1H-pyrazolo[3,4-d]pyrimidine]
< 50 | 500 to 2000 | > 2000 | COc1ccc(CN2CCN(c3ncnc4[nH]nc(Br)c34)CC2)cc1 [Entry 32, 3-bromo-4-(4-{[4-(methyloxy)phenyl]methyl}piperazin-1-yl)-1H-pyrazolo[3,4-d]pyrimidine]
< 50 | 50 to 500 | > 2000 | Clc1ccc(CN2CCN(c3ncnc4[nH]nc(Br)c34)CC2)cc1Cl [Entry 27, 3-bromo-4-{4-[(3,4-dichlorophenyl)methyl]piperazin-1-yl}-1H-pyrazolo[3,4-d]pyrimidine]
50 to 500 | > 2000 | > 2000 | Brc1n[nH]c2ncnc(N3CCN(Cc4ccncc4)CC3)c12 [Entry 58, 3-bromo-4-[4-(pyridin-4-ylmethyl)piperazin-1-yl]-1H-pyrazolo[3,4-d]pyrimidine]
